Patent publication US7112654B2, “Ligand for vascular endothelial growth factor receptor” (Supratek Pharma Inc., priority 2001, dated 2006)
Ends that are not written are not given here.

Key:
hFlt-1 = hFlt-1 (Homo sapiens, UniProt P17948); assay: Binding of alanine-substituted and truncated phage clones to immobilized Flt-1 receptor by ELISA; conditions: relative to clone V5.2
[1] = target: VEGF receptor-1 (human Flt-1/Fc chimera) (Homo sapiens, UniProt P17948); assay: Phage binding assay to immobilized VEGF receptor-1 (anti-M13 ELISA); conditions: 10^9 virions/200 μl, overnight at 4 degree
Flt-1 = Flt-1 (Homo sapiens, UniProt P17948); conditions: cited from earlier work
endothelial cells = conditions: VEGF binding to KDR; cited from earlier work

hFlt-1, sequence (P17948 27-687 isoform P17948-2 limits assumed): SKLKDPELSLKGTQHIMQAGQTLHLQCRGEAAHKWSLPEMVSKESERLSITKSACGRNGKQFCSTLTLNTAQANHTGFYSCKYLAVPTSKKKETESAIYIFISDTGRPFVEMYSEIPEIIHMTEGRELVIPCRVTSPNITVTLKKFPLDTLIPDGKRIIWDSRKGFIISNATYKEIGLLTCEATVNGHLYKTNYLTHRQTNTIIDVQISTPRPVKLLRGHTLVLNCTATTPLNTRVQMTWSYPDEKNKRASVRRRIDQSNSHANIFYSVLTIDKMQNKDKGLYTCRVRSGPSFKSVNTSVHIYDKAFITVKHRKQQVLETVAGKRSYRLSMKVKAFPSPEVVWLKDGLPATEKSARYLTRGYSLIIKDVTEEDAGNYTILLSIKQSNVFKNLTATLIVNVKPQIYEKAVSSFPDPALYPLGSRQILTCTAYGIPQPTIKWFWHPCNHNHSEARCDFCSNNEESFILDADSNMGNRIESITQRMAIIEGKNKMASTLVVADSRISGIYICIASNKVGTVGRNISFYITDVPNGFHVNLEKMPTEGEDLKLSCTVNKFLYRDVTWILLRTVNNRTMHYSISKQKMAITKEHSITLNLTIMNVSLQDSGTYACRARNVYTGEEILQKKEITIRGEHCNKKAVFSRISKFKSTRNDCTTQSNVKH
VEGF receptor-1 (human Flt-1/Fc chimera), sequence (P17948 27-687 isoform P17948-2 limits assumed): as above
Flt-1, sequence (P17948 27-1338, species assumed): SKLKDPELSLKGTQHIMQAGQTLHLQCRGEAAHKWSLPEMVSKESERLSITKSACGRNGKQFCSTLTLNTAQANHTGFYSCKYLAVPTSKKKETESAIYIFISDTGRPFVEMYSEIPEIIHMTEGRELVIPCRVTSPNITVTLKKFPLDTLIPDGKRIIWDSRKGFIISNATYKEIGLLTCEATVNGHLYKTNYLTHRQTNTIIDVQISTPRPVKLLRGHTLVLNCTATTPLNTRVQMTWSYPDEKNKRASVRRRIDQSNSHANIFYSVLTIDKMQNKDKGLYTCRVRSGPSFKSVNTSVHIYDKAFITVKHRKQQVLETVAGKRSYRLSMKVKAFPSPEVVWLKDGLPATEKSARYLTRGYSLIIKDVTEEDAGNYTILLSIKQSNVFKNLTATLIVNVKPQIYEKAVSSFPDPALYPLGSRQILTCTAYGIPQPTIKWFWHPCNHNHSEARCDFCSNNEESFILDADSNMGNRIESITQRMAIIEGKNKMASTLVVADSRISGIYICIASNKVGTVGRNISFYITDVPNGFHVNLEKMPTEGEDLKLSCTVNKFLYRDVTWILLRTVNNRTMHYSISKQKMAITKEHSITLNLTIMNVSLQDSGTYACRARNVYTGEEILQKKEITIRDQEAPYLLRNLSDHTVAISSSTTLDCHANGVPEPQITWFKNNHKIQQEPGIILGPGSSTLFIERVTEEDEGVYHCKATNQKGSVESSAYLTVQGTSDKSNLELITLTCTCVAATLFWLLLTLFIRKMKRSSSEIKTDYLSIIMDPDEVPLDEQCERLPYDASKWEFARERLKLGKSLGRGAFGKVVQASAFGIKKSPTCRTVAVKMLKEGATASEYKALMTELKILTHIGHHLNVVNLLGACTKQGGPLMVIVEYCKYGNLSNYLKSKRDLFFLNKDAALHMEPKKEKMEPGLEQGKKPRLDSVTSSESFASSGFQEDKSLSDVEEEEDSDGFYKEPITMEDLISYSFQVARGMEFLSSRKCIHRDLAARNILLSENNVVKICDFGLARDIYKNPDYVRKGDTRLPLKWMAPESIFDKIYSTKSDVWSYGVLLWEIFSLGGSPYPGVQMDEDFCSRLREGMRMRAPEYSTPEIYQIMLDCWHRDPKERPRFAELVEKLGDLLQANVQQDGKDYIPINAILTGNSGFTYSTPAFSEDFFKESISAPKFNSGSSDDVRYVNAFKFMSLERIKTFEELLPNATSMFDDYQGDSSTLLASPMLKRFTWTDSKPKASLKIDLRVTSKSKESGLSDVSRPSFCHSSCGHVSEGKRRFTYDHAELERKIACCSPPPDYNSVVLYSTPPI

| Substance | Binding to hFlt-1 in % (hFlt-1) [%] | ABSORBANCE, A 405 [1] | also measured |
| --- | --- | --- | --- |
| EIEWYSW (displayed on phage; Chemical peptide synthesis and biosynthesis utilizing E. coli) [V5.2/1] | 6.55 ± 15.81 | – | – |
| FVGGWLVPEDERLYPE [V40] | – | 0.025 ± 0.014 | – |
| NGYAIAWYSWVTHGMY (displayed on phage; Chemical peptide synthesis and biosynthesis utilizing E. coli) [E46/A] | 44.46 ± 7.05 | – | – |
| NGYEIEAYSAVTHGMY (displayed on phage; Chemical peptide synthesis and biosynthesis utilizing E. coli) [W710/A] | 62.15 ± 22.16 | – | – |
| PEPEVRLSPPGHIQSL [V5.10] | – | 0.039 ± 0.013 | – |
| VEGF | – | – | Kd (Flt-1): 0.01 to 0.02 nM; ED50 (endothelial cells): 0.1 to 1 ng/mL |
